According to US10828349B2, “Treatment of microbial infections” (NATIONAL UNIVERSITY OF IRELAND, GALWAY, priority 2011, dated 2020):

How the values were obtained:
[1] = system: Staphycoccus epidermidis central venous catheter-related biofilm; conditions: cited from earlier work; for duration of treatment after which biofilm cells were still recoverable: 10 g/L antibiotic; for result relative to gentamycin and vancomycin: biofilm lock therapy model
E. coli ATCC 25922 = assay: hydrogen peroxide source growth inhibition assay with or without LP and KI; type: cell-based
Experimental: Aliquots (20 ml) of nutrient broth were inoculated with 10^8 cells of E. coli ATCC 25922, and 150 μl of the inoculated broth were added to wells in a 96 well growth plate. This was repeated with the inoculated broth being further supplemented with LP (37.5 μl of a 4 mg/ml solution) and KI (75 μl of a 40 mg/ml solution) to the medium.
Sources of hydrogen peroxide were added (150 μl) to well 1 and doubly diluted to well 11, but not to well 12, which acted as a control.

E. coli [2] = conditions: constant H2O2 (glucose oxidase) and LP; substrate 40 mg/ml doubly diluted; Mueller Hinton broth
Experimental: (§2) Secondly, an assay where the concentration of substrates was maintained constant, and the H2O2 levels were varied was employed.
This was aliquoted (150 μl) to rows of a 96-well plate. […] The samples were doubly diluted as far as well 11, leaving well 12 as a control. The plate was incubated overnight at 37° C., and the optical density measured throughout.

bacterial cells [3] = assay: lower limits of components of the enzymatic system, LB broth; type: cell-based; conditions: for level of required substrate: glucose and glucose oxidase levels sufficient
Experimental: The lower limits of each of the components in an enzymatic system, required to produce inhibitory biocidal concentrations of the antimicrobial agents, were determined (for example Table 1 and Table 5). To establish these lower limits for each component, minimum inhibitory concentrations for each were calculated using doubling dilutions on a 96-well plate, in a manner similar to that described in Example 1, wherein the concentration of the component of choice is lowered until no effect on growth is noted. […] At levels below this, there was insufficient reactive oxygen species produced to result in effective bactericidal activity. The level of LP required for a reaction to produce the reactive oxygen species at the required concentrations was determined at 0.15 unit activity/ml (1 mM KI present). […] This embodiment of the invention suitable for the therapeutic treatment of mastitis also included beta-galactosidase to convert the lactose present in milk to glucose.

E. coli [4] = conditions: constant substrate and LP; glucose/glucose oxidase doubly diluted; Mueller Hinton broth
Experimental: as §2
This was aliquoted (150 μl) to a 96 well plate.

[5] = effect of milk pasteurisation heating on the enzymatic components; type: physicochemical; conditions: held 15-600 seconds; activity read by E. coli total viable counts in milk after 24 hrs at 37° C.
Experimental: An attempt was made to determine the effects of the milk pasteurisation process on the enzymatic components, which can be used to produce the reactive oxygen species of the composition of the present invention. Working concentrations of the enzymes were heated in 50 μl volumes to 72° C. and held for 15, 30, 60, 300 or 600 seconds.
Appropriate concentrations of these aliquots were then transferred to milk containing the necessary components of the system and ˜10^8 cells/ml E. coli. Total viable counts were performed after 24 hrs incubation at 37° C. This allowed the determination of whether the enzymes were still active after heating.

E. coli [6] = assay: milk inoculated with E. coli, enzymatic system with Beta-galactosidase; type: cell-based; conditions: component of the four-component system in milk inoculated with E. coli
bacterial cells [7] = assay: potency in broth growth medium containing catalase; type: cell-based; conditions: hydrogen peroxide 0.85 M only
Experimental: This embodiment is referred to as ‘KI-Dose-150’.
The potency of the doses was not reversed. A 1:1024 dilution of the doses was inhibitory in the absence of catalase, and a 1:512 dilution of the doses was inhibitory in the presence of catalase.
As a comparison, the test was performed using only hydrogen peroxide (0.85 M), both in the presence and absence of catalase.

E. coli [8] = conditions: catalase treated
Experimental: The antimicrobial properties of these compositions were tested using a doubling dilution 96-well plate growth assay-based method. An aliquot of the composition was added to 150 μl growth medium (with 1-2% glucose present) containing 10^7-8 bacterial cells, and brought to a final volume of 300 μl. The composition concentration was doubly diluted by the removal of 150 μl of the mixture and transfer to the next well containing 150 μl of identical growth medium, lacking the ROS producing components. The optical density of the medium was measured for 24 hours at 595 nm. […] Controls included wells to which none of the composition was supplemented, or wherein, one of the components was removed from the composition.
A further example of a pre-activated system was employed as follows: solutions (4 ml volumes) containing 0.85 M H2O2 plus none or 2.5 M NaCl/5 μl chloroperoxidase (˜10,000 Units/ml) were allowed incubate. The solutions were then split and either catalase treated (50 μl of a 4 mg/ml, >1,000 units/mg) or were not catalase treated. The relative antimicrobial properties of the solutions were then tested using the protocol as described in Example 1 using E. coli supplemented broth.

R480/2012 9029 = assay: antibiotic susceptibility of strain; type: cell-based, P. aeruginosa; parameters: key: ‘S’ denotes sensitive; ‘R’ denotes resistant or increased tolerance; conditions: R480/2012 9029, cystic fibrosis sputum isolate
Experimental: (§1) The susceptibility of a number of P. aeruginosa strains to the KI-Dose-150 composition was tested using the method described in Example 1. […] The relative susceptibilities are described in Table 4.

R550/2012 9026 = assay: antibiotic susceptibility of strain; type: cell-based, P. aeruginosa; parameters: key: ‘S’ denotes sensitive; ‘R’ denotes resistant or increased tolerance; conditions: R550/2012 9026, cystic fibrosis sputum isolate
Experimental: as §1

R479/2012 9028 = assay: antibiotic susceptibility of strain; type: cell-based, P. aeruginosa; parameters: key: ‘S’ denotes sensitive; ‘R’ denotes resistant or increased tolerance; conditions: R479/2012 9028, cystic fibrosis sputum isolate
Experimental: as §1

R468/2012 9027 = assay: antibiotic susceptibility of strain; type: cell-based, P. aeruginosa; parameters: key: ‘S’ denotes sensitive; ‘R’ denotes resistant or increased tolerance; conditions: R468/2012 9027, cystic fibrosis sputum isolate
Experimental: as §1

P. aeruginosa D12 = assay: antibiotic susceptibility of strain; type: cell-based; parameters: key: ‘S’ denotes sensitive; ‘R’ denotes resistant or increased tolerance
Experimental: as §1

[9] = nutrient broth supplemented with KI and LP

CN[C@H](CC(C)C)C(=O)N[C@H]1C(=O)N[C@@H](CC(N)=O)C(=O)N[C@H]2C(=O)N[C@H]3C(=O)N[C@H](C(=O)N[C@H](C(=O)O)c4cc(O)cc(O)c4-c4cc3ccc4O)[C@H](O)c3ccc(c(Cl)c3)Oc3cc2cc(c3O[C@@H]2O[C@H](CO)[C@@H](O)[C@H](O)[C@H]2O[C@H]2C[C@](C)(N)[C@H](O)[C@H](C)O2)Oc2ccc(cc2Cl)[C@H]1O [vancomycin]
duration of treatment after which biofilm cells were still recoverable [1]: 7 days

O=C([O-])[O-].O=C([O-])[O-].OO.OO.OO.[Na+].[Na+].[Na+].[Na+] [sodium percarbonate solution, sodium percarbonate]
greatest dilution of the hydrogen peroxide source inhibitory to E. coli (E. coli ATCC 25922; [9]): no difference as regards inhibition
greatest dilution of the hydrogen peroxide source inhibitory to E. coli (E. coli ATCC 25922; nutrient broth without supplemented KI and LP): identical to that observed following direct H2O2 addition

[I-].[K+] [Iodide, potassium iodide]
last doubling dilution with substrate level sufficient for complete inhibition (E. coli [2]): 8
level of required substrate (bacterial cells [3]): approximately 0.5 mM
number of dilutions of the H2O2 producing sample with inhibition (E. coli [4]): six

CC(=O)NC[C@H]1CN(c2ccc(N3CCOCC3)c(F)c2)C(=O)O1 [linezolid]
result relative to gentamycin and vancomycin [1]: better results

lactoperoxidase
enzyme activity after heating to 72° C. [5]: demonstrated activity after 300 seconds heating
level of LP required (bacterial cells [3]; 1 mM KI present): 0.15 unit activity/ml
concentration sufficient to observe antibacterial activity (E. coli [6]): ≥ 12 mg/L

Glucose oxidase
glucose oxidase level required (bacterial cells [3]; 0.5% glucose): 2 units/ml
glucose oxidase level required (bacterial cells [3]; 1% glucose): 1 units/ml
glucose oxidase level required (bacterial cells [3]; LB broth, 2% glucose, 120 mg/L KI, 320 units LP): at least 0.5 unit glucose oxidase/ml
concentration sufficient to observe antibacterial activity (E. coli [6]): ≥ 3.75 mg/L

OO [hydrogen peroxide]
effect of catalase on the inhibitory nature (bacterial cells [7]): completely reverse the inhibitory nature
greatest dilution of the hydrogen peroxide source inhibitory to E. coli (E. coli ATCC 25922; [9]): 1:32 dilution still not inhibitory
dilutions at which inhibition of the bacteria was noted (E. coli [8]): no inhibition

N#C[S-].[K+] [Thiocyanate, potassium thiocyanate]
last doubling dilution with substrate level sufficient for complete inhibition (E. coli [2]): 9
level of required substrate (bacterial cells [3]): approximately 0.5 mM
number of dilutions of the H2O2 producing sample with inhibition (E. coli [4]): two

Gentamicin
susceptibility of the strain to the antibiotic (R480/2012 9029): R
susceptibility of the strain to the antibiotic (R550/2012 9026): R
susceptibility of the strain to the antibiotic (R479/2012 9028): R
duration of treatment after which biofilm cells were still recoverable [1]: 10 days

NC[C@H]1O[C@H](O[C@H]2[C@H](O)[C@@H](O[C@H]3O[C@H](CO)[C@@H](O)[C@H](N)[C@H]3O)[C@H](N)C[C@@H]2N)[C@H](N)C[C@@H]1O [Tobramycin]
susceptibility of the strain to the antibiotic (R550/2012 9026): R
susceptibility of the strain to the antibiotic (R479/2012 9028): R

NCC[C@H](O)C(=O)N[C@@H]1C[C@H](N)[C@@H](O[C@H]2O[C@H](CN)[C@@H](O)[C@H](O)[C@H]2O)[C@H](O)[C@H]1O[C@H]1O[C@H](CO)[C@@H](O)[C@H](N)[C@H]1O [Amikacin]
susceptibility of the strain to the antibiotic (R480/2012 9029): R
susceptibility of the strain to the antibiotic (R550/2012 9026): R
susceptibility of the strain to the antibiotic (R468/2012 9027): R
susceptibility of the strain to the antibiotic (R479/2012 9028): R

CC(=O)NC[C@H]1CN(c2ccc(N3CCN(C(=O)CO)CC3)c(F)c2)C(=O)O1 [eperezolid]
result relative to gentamycin and vancomycin [1]: better results

O=C(O)c1cn(C2CC2)c2cc(N3CCNCC3)c(F)cc2c1=O [Ciprofloxacin]
susceptibility of the strain to the antibiotic (P. aeruginosa D12): R
susceptibility of the strain to the antibiotic (R480/2012 9029): R
susceptibility of the strain to the antibiotic (R550/2012 9026): R
